Like-named read-outs stand apart in the source and are kept apart here.
Key:
[1] = cited from earlier work
[2] = animal models of meningitis caused by pneumococci; cited from earlier work
[3] = Chemical stability of vancomycin in aqueous solution (CDP-I formation by HPLC): effect of pH, organic bases, ethanol, ammonium ions; conditions: 4° C. (FIG. 7); high concentration and low pH
Method: Selected samples were also incubated at a lower concentration (20 mg/mL).
In buffered samples, an appropriate amount of buffer or amino acid additive was added. The pH values were chosen to cover the range between the lowest and highest acceptable values of pH, including pH 5.0 for lipid stability reasons and pH 6.5, above which degradation is expected to be impractically fast.
The concentration of 200 mg/mL was chosen to mimic what a high intra-liposomal might be but was no higher than this for practical handling purposes. All samples were liquid solutions upon preparation.
For comparison, lower concentration solutions (20 mg/mL) also were prepared by diluting 200 mg/mL samples 10-fold in water. Samples were incubated at 4° C. (in refrigerator) and at ambient temperature (about 23° C., which is referred herein to as “room temperature” or “RT”).

For `CN[C@H]1C(=O)N[C@@H]2Cc3ccc(cc3)Oc3cc4cc(c3O[C@@H]3O[C@H](C(=O)O)[C@@H](O)[C@H](O)[C@H]3NC(=O)CCCCCCCCC(C)C)Oc3ccc(cc3Cl)[C@@H](O)[C@@H]3NC(=O)[C@H](NC(=O)[C@@H]4NC(=O)[C@@H](NC2=O)c2cc(cc(O)c2Cl)Oc2cc1ccc2O)c1ccc(O)c(c1)-c1c(O[C@H]2O[C@H](CO)[C@@H](O)[C@H](O)[C@@H]2O)cc(O)cc1[C@@H](C(=O)NCCCN(C)C)NC3=O` [Dalbavanc in, Dalbavancin], the AUC ([1]; in vivo) is listed as 27103 µg·h/mL, the Protein binding ([1]; in vivo) is listed as 98% and the Vd ([1]; in vivo) is listed as 0.11 L/kg.

In the case of `CN[C@H](CC(C)C)C(=O)N[C@H]1C(=O)N[C@@H](CC(N)=O)C(=O)N[C@H]2C(=O)N[C@H]3C(=O)N[C@H](C(=O)N[C@H](C(=O)O)c4cc(O)cc(O)c4-c4cc3ccc4O)[C@H](O[C@H]3C[C@](C)(N)[C@@H](O)[C@H](C)O3)c3ccc(c(Cl)c3)Oc3cc2cc(c3O[C@@H]2O[C@H](CO)[C@@H](O)[C@H](O)[C@H]2O[C@H]2C[C@](C)(NCc3ccc(-c4ccc(Cl)cc4)cc3)[C@@H](O)[C@H](C)O2)Oc2ccc(cc2Cl)[C@H]1O` [Oritavancin], the AUC [1] is given as 152 µg·h/mL, the Protein binding [1] is given as 90% and the Terminal half-life [1] is given as 360 h. For the same compound, the “concentration in cerebrospinal fluid, % of the serum level” value [2] was 5%.

In the case of `CCCCCCCCCCNCCN[C@@]1(C)C[C@H](O[C@H]2[C@H](Oc3c4cc5cc3Oc3ccc(cc3Cl)[C@@H](O)[C@@H](NC(=O)[C@@H](CC(C)C)NC)C(=O)N[C@@H](CC(N)=O)C(=O)N[C@H]5C(=O)N[C@H]3C(=O)N[C@H](C(=O)N[C@H](C(=O)O)c5cc(O)c(CNCP(=O)(O)O)c(O)c5-c5cc3ccc5O)[C@H](O)c3ccc(c(Cl)c3)O4)O[C@H](CO)[C@@H](O)[C@@H]2O)O[C@@H](C)[C@H]1O` [Telavancin], the AUC [1] is given as 600 µg·h/mL, the Protein binding [1] is given as 90-93% and the Terminal half-life [1] is given as 7 h.

For `CN[C@H](CC(C)C)C(=O)N[C@H]1C(=O)N[C@@H](CC(N)=O)C(=O)N[C@H]2C(=O)N[C@H]3C(=O)N[C@H](C(=O)N[C@H](C(=O)O)c4cc(O)cc(O)c4-c4cc3ccc4O)[C@H](O)c3ccc(c(Cl)c3)Oc3cc2cc(c3O[C@@H]2O[C@H](CO)[C@@H](O)[C@H](O)[C@H]2O[C@H]2C[C@](C)(N)[C@H](O)[C@H](C)O2)Oc2ccc(cc2Cl)[C@H]1O` [Vancomycin], the degradation rate [3] is listed as “about 0.1 % per week”, the AUC [1] is listed as 260 µg·h/mL and the Protein binding [1] is listed as 10-55%. For the same compound, the Terminal half-life [1] was 4 to 8 h and the Vd [1] was 0.3 L/kg.

In the case of Teicoplanin, the AUC [1] is given as 550 µg·h/mL, the Protein binding [1] is given as 90% and the Terminal half-life [1] is given as 83 to 168 h. For the same compound, the Vd [1] was 0.9 to 1.6 L/kg.

From patent publication US10471149B2 (Insmed Incorporated, priority 2012, dated 2019)
